Assay results reported in ChEMBL document CHEMBL1152471 (2008).
≈ marks a conversion by molar mass, not a printed value.

Key:
Assay type in all cases: functional
[1] = test system: Mycobacterium tuberculosis; assay: Antituberculosis activity against linezolid-resistant Mycobacterium tuberculosis having mutation in 23S rRNA with alteration in domain V
[2] = test system: Mycobacterium tuberculosis; assay: Antituberculosis activity against linezolid-resistant Mycobacterium tuberculosis by bactec 460 TB method
[3] = test system: Mycobacterium tuberculosis; assay: Antituberculosis activity against linezolid-resistant Mycobacterium tuberculosis without mutation in 23S rRNA
[4] = test system: Mycobacterium tuberculosis; assay: Antituberculosis activity against linezolid-resistant Mycobacterium tuberculosis having mutation in 23S rRNA with identical G to T base pair exchange at position 2061
[5] = test system: Mycobacterium tuberculosis; assay: Antituberculosis activity against linezolid-resistant Mycobacterium tuberculosis by bactec MGIT 960 method
[6] = test system: Mycobacterium tuberculosis; assay: Antituberculosis activity against linezolid-resistant Mycobacterium tuberculosis having mutation in 23S rRNA with G to T base pair exchange at position 2576

## CC(=O)NC[C@H]1CN(c2ccc(N3CCOCC3)c(F)c2)C(=O)O1 [LINEZOLID]
[1]
  MIC: >=64 ug ml-1
[2]
  MIC: ≤ 1 µg/mL
[3]
  MIC: 4 µg/mL (≈ 11.9 µM)
[4]
  MIC: 32 µg/mL (≈ 94.9 µM)
[5]
  MIC: ≤ 1 µg/mL
[6]
  MIC: 16 µg/mL (≈ 47.4 µM)
